Drawing on BindingDB's records for doi:10.7270/Q2959G0B (Nmmlsc, 2009), this text covers EC50 for 26 compounds.

pEC50: −log10 of the molar value.

The target in the assay is Ras-related C3 botulinum toxin substrate 1 (Mus musculus, UniProt P63001). Description: Rac1 wildtype GTP binding inhibitors, SAR follow-up, biochemical, pyrazoline analogs, multiplex, flow cytometry, Ki (AID 2055). For orientation: A flow cytometer gives signals particle by particle.
Setting [1] is: inactive by the depositor's call.

As usually defined, the pEC50 is the negative decadic logarithm of the EC50, by convention in mol/L. A lower pEC50 goes with a large EC50. `Cc1ccc(C2CC(c3ccccc3)=NN2c2ccc(S(N)(=O)=O)cc2)cc1` (stereo unspecified) had a pEC50 under setting [1] of 4.52. `NS(=O)(=O)c1ccc(N2N=C(c3ccccc3)CC2c2cccc(Br)c2)cc1` (stereo unspecified) [UNM-0000306147] gave a pEC50 under setting [1] of 4.52. On to `CN(C)c1ccc(C2CC(c3ccc(Cl)cc3)=NN2c2ccccc2)cc1` (stereo unspecified) [UNM-0000305847], for which the pEC50 under setting [1] is 4.52. Regarding `O=[N+]([O-])c1cccc(C2C[C-](c3ccc(F)cc3)N=[N+]2c2ccccc2)c1` (stereo unspecified) [5-(4-fluorophenyl)-3-(3-nitrophenyl)-2-phenyl-3,4-dihydropyrazole], the pEC50 under setting [1] is 4.52. The same measure, in the same setting: in the case of `NS(=O)(=O)c1ccc(N2N=C(c3ccccc3)CC2c2ccccc2Br)cc1` (stereo unspecified) [4-[3-(2-bromophenyl)-5-phenyl-3,4-dihydropyrazol-2-yl]benzenesulfonamide] it was 4.52; in that of `Clc1cccc(N2N=C(c3ccccc3)CC2c2ccccc2)c1` (stereo unspecified), 4.52; in that of `COc1ccc(C2CC(c3cccc(OC)c3)=NN2c2ccc(S(N)(=O)=O)cc2)cc1` (stereo unspecified) [4-[5-(3-methoxyphenyl)-3-(4-methoxyphenyl)-3,4-dihydropyrazol-2-yl]benzenesulfonamide], 4.52. Same read-out and setting: to `COc1ccc(C2=NN(c3cccc(F)c3)C(c3ccc(OC)cc3)C2)cc1` (stereo unspecified) [2-(3-fluorophenyl)-3,5-bis(4-methoxyphenyl)-3,4-dihydropyrazole] belongs 4.52.

Regarding `COc1ccccc1C1CC(c2ccccc2)=NN1c1ccc(S(N)(=O)=O)cc1` (stereo unspecified) [4-[3-(2-methoxyphenyl)-5-phenyl-3,4-dihydropyrazol-2-yl]benzenesulfonamide], under setting [1], the pEC50 was 4.52. The same measure, in the same setting: to `COc1ccc(-c2cc(-c3ccccc3)nn2-c2ccc(S(N)(=O)=O)cc2)cc1` [4-[5-(4-methoxyphenyl)-3-phenylpyrazol-1-yl]benzenesulfonamide] belongs 4.52; to `CN(C)c1ccc(C2CC(c3ccc(Br)cc3)=NN2c2ccccc2)cc1` (stereo unspecified) [UNM-0000305846], 4.52; to `COc1ccc(C2=NN(c3ccccc3)C(c3ccc(Cl)cc3)C2)cc1` (stereo unspecified) [UNM-0000305833], 4.52. For `O=S(=O)(O)c1ccc(N2N=C(c3ccccc3)CC2c2ccccc2)cc1` (stereo unspecified) [UNM-0000305834], the pEC50 is 4.52.

Under setting [1], `O=S(=O)(c1ccc(N2N=C(c3ccc(Br)cc3)CC2c2ccccc2)cc1)C(F)F` (stereo unspecified) [5-(4-bromophenyl)-2-[4-(difluoromethylsulfonyl)phenyl]-3-phenyl-3,4-dihydropyrazole] showed a negative-log EC50 (pEC50) of 4.52. Take `NS(=O)(=O)c1ccc(N2N=C(c3ccc(Cl)cc3)CC2c2ccccc2)cc1` (stereo unspecified): the pEC50 under setting [1] was 4.52. `COc1ccc(C2CC(c3ccccc3C)=NN2c2ccc(S(N)(=O)=O)cc2)cc1` (stereo unspecified) [UNM-0000306152] gave a pEC50 under setting [1] of 4.52. Consider `COc1ccc(C2CC(c3ccc(F)cc3)=NN2c2ccccc2)cc1OC` (stereo unspecified) [UNM-0000305864], for which the pEC50 under setting [1] is 4.52. In turn, `O=S(=O)(c1ccc(N2N=C(c3ccccc3)CC2c2ccccc2)cc1)C(F)F` (stereo unspecified) had a pEC50 under setting [1] of 4.52. In turn, `COc1ccc(C2CC(c3ccc(Br)cc3)=NN2c2ccc(S(N)(=O)=O)cc2)cc1` (stereo unspecified) [UNM-0000306138] had a pEC50 under setting [1] of 4.52.

As for `COc1ccc(C2CC(C)=NN2c2ccc(S(N)(=O)=O)cc2)cc1` (stereo unspecified) [4-[3-(4-methoxyphenyl)-5-methyl-3,4-dihydropyrazol-2-yl]benzenesulfonamide], under setting [1], the negative-log EC50 (pEC50) is 4.52.

Consider `Cc1onc(-c2ccccc2)c1-c1ccc(S(N)(=O)=O)cc1`, for which the pEC50 under setting [1] was 4.52.

`NS(=O)(=O)c1ccc(N2N=C(c3ccccc3)CC2c2ccc(Br)cc2)cc1` (stereo unspecified) [UNM-0000306160] gave a pEC50 under setting [1] of 4.52. Still for that read-out and setting: to `COc1cccc(C2CC(c3ccccc3)=NN2c2ccc(S(N)(=O)=O)cc2)c1` (stereo unspecified) [4-[3-(3-methoxyphenyl)-5-phenyl-3,4-dihydropyrazol-2-yl]benzenesulfonamide] belongs 4.52. As to `NS(=O)(=O)c1ccc(N2N=C(c3ccccc3)CC2c2ccc(Cl)cc2)cc1` (stereo unspecified) [4-[3-(4-chlorophenyl)-5-phenyl-3,4-dihydropyrazol-2-yl]benzenesulfonamide], the pEC50 under setting [1] was 4.52. With `COc1ccc(C2CC(C(C)(C)C)=NN2c2ccc(S(N)(=O)=O)cc2)cc1` (stereo unspecified) [KUC103450N], under setting [1], the pEC50 is 4.52.

For `FC(F)(F)c1cccc(N2N=C(c3ccc(Cl)cc3)CC2c2ccccc2Cl)c1` (stereo unspecified) [UNM-0000305859], the pEC50 under setting [1] was 4.52.
